The values below come from publication PMC10497752, “Heparins are potent inhibitors of ectonucleotide pyrophosphatase/phospho-diesterase-1 (NPP1) – a promising target for the immunotherapy of cancer” (Frontiers in Immunology, 2023).

The target in one assay is T1, human NTPDase2 (Homo sapiens, UniProt Q9Y5L3).
T1 construct: made in house; host or cells: COS-7 cells
T1 sequence (Q9Y5L3 1-495): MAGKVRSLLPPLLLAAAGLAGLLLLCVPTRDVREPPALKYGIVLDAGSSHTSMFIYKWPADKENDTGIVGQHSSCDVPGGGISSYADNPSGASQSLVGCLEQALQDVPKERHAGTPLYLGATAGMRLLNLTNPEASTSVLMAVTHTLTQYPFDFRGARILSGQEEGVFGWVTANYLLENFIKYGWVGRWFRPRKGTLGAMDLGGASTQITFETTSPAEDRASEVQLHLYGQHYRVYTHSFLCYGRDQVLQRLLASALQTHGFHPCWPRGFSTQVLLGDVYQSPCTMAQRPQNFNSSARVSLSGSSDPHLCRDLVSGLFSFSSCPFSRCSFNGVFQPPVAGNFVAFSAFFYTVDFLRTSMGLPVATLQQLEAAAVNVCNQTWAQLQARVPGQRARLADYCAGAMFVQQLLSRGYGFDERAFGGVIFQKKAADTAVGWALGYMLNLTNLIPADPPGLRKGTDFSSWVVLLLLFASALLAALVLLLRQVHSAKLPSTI
Nature of the assay: NTPDase CE-based assay, NTPDase2. The assay is classed as biochemical. The settings on record: 20 µg/mL (12 µM); read-out: NTPDase2 inhibition, selectivity study. The protocol: For monitoring the activity of human NTPDases (subtypes 1, 2, 3 and 8) in the presence of test compounds, a CE-based assay system was used, according to a published procedure ([11], [25]). The following concentrations of test compounds were investigated in initial screening studies: 63 IU/mL of compounds 1 and 2, 30 µM of compound 6. For selectivity studies, the following concentration were employed: 50 IU/mL of 1, 12 µM of 6, and 48 µM of 7. The amount of enzyme was selected according to previously performed enzymatic titration, and adjusted to ensure a 10–20% conversion rate. Enzymes were obtained by transfection of COS-7 cells using plasmids encoding human NTPDase1 (GenBank accession number U87967) ([26]), NTPDase2 (NM_203468) ([27]), a kind gift of Dr. A.F. Knowles (San Diego, CA), NTPDase3 (AF034840) ([28]), a kind gift of Dr. T.L. Kirley (Cincinnati, OH) and human NTPDase8 (AY430414) ([29]) and purified as previously described ([30], [31]). The reaction buffer consisted of 10 mM HEPES, 2 mM CaCl2, and 1 mM MgCl2, pH 7.4. In the CE assay, the selected substrate concentration (ATP) was 100 µM for all studied human NTPDases (-1, -2, -3 and -8). […] The released products were separated by CE and quantified by their UV-absorption at 260 nm with ADP and AMP as external standards, as previously described ([11]); positive and negative controls were included.

Another assay deals with T2, human NPP3 (Homo sapiens, UniProt O14638).
T2 construct: Soluble and purified human NPP3, prepared as previously described; made in house
T2 sequence (O14638 31-875 limits assumed): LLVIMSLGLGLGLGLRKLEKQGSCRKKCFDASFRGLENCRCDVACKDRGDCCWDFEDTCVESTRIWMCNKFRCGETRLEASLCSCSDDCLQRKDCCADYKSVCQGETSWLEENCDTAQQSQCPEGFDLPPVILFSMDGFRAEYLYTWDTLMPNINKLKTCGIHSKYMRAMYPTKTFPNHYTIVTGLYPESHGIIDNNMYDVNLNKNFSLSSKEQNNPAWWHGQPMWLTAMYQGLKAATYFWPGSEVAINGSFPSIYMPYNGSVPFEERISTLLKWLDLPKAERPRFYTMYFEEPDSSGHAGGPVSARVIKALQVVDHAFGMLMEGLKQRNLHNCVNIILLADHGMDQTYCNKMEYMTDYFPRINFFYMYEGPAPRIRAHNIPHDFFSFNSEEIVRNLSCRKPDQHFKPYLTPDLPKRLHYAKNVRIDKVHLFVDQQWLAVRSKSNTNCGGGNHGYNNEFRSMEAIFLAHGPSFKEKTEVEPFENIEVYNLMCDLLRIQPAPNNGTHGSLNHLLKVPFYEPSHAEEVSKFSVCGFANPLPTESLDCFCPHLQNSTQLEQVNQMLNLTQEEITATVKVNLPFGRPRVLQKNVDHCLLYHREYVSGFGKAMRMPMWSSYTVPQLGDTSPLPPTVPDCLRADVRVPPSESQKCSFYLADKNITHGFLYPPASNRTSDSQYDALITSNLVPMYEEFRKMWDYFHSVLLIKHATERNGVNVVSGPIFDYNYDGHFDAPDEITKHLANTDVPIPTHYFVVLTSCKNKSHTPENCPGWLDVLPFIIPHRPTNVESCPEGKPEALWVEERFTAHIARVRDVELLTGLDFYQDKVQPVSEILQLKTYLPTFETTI
Nature of the assay: NPP3 colorimetric assay, p-Nph-5'-TMP as substrate. The assay is classed as biochemical. Particulars: 20 µg/mL (12 µM). The protocol:
Compounds 1, 2, 5, 6, and 7 were screened at different concentrations using 400 μM of p-nitrophenyl thymidine monophosphate (p-Nph-5´-TMP) as substrate to study potential inhibition of NPP3 and NPP5 using a colorimetric assay as previously described ([21]). Soluble and purified human NPP3, prepared as previously described ([22]), and human NPP5 ([23]) were diluted in the assay buffer (50 mM TRIS HCl, 2 mM CaCl2, and 0.2 mM ZnCl2, pH 9.00), and 0.09 µg of NPP3, or 0.4 µg of NPP5 were employed. The mixtures were incubated for 30 min at 37°C in case of NPP3, and for 100 min at 37°C in case of NPP5, and the reactions were subsequently terminated by adding 20 μL of 1.0 N aq. NaOH solution. The assay is based on the enzymatic ester hydrolysis of p-Nph-5’-TMP which results in the formation of the yellow p-nitrophenolate anion. The absorption was measured at 400 nm using a BMG PheraStar FS plate reader (BMG Labtech GmbH, Ortenberg, Germany). Each analysis was repeated three times with triplicate measurements.

What is called inhibition is the change of the read-out against control, counted positive when it falls.

Turning to `CO[C@H]1O[C@H](COS(=O)(=O)O)[C@@H](O[C@@H]2O[C@@H](C(=O)O)[C@@H](O[C@H]3O[C@H](COS(=O)(=O)O)[C@@H](O[C@@H]4O[C@H](C(=O)O)[C@@H](O[C@H]5O[C@H](COS(=O)(=O)O)[C@@H](O)[C@H](O)[C@H]5NS(=O)(=O)O)[C@H](O)[C@H]4O)[C@H](OS(=O)(=O)O)[C@H]3NS(=O)(=O)O)[C@H](O)[C@H]2OS(=O)(=O)O)[C@H](O)[C@H]1NS(=O)(=O)O` [Compound 6, Fondaparinux], the inhibition at 12 µM at human NTPDase2 is approximately 35%. For the same compound, the “NPP3 inhibition, selectivity study” value on human NPP3 is reported as “no effect”.
